Test results taken from patent US10065990B2, “Cyclic peptide compound, and preparation method, pharmaceutical composition and use thereof” (HANGZHOU GUANYU BIO-MEDICAL CO., LTD, priority 2013, dated 2018).
Like-named read-outs stand apart in the source and are kept apart here.

How the values were obtained:
[1] = biological target: T1, HDAC7 (Homo sapiens, UniProt Q8WUI4); test: HDAC biochemical activity measurement (fluorescent substrate deacetylation);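 also: fluorogenic deacetylation assay using acetyl-lysine substrate at 20 µM, enzyme and compound incubated 30 min at 37 °C, then developer added, fluorescence read at 360/460 nm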; conditions: HDAC7; 37° C. 30 minutes
T1 sequence (Q8WUI4 1-952): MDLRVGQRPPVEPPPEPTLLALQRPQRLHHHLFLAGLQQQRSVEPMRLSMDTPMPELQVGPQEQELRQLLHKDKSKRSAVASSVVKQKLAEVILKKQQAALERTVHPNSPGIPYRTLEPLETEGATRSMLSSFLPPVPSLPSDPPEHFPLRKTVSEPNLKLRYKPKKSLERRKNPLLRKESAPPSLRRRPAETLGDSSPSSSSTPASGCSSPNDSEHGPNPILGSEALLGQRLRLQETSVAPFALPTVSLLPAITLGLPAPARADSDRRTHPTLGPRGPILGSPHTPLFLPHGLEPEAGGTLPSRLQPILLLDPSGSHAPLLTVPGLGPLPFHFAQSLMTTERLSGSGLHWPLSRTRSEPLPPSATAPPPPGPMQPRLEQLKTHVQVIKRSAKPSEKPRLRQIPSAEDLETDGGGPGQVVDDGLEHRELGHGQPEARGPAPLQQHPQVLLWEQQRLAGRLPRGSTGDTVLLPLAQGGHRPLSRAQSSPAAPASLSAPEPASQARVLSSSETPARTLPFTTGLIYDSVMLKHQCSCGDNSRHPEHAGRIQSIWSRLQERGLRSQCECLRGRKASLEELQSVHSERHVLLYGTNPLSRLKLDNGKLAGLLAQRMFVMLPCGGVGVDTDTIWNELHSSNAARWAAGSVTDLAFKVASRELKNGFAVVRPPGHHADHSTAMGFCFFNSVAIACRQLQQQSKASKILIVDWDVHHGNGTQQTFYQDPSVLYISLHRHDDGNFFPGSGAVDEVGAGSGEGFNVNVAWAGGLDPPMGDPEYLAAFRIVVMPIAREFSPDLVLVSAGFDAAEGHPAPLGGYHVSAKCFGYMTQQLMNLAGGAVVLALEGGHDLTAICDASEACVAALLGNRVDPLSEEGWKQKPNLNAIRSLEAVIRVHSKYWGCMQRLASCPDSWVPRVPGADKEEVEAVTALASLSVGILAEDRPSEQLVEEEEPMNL

[2] = tested on: A549 (human lung cancer cells); test: MTT cancer cell growth inhibition; type: cell-based; conditions: Homo sapiens, A549, 72 h, MTT, 72 hours incubation, read-out: GI50 A54
Method in brief: (§1)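 72 h exposure, final drug 10^−5–10^−10 M, triplicate wells; 1500 cells/well plated the day before; medium DMEM or 1640 + 10% FBS; 37° C./5% CO2. MTT (5 mg/ml stock) 4 h, DMSO solubilisation, A570 → % viability → GI50.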

[3] = tested on: BGC-823 (human gastric cancer cells); test: MTT cancer cell growth inhibition; type: cell-based; conditions: Homo sapiens, BGC-823, 72 h, MTT, 72 hours incubation, read-out: GI50 BG
Method in brief: as §1

[4] = tested on: Bel-7402 (human hepatoma cells); test: MTT cancer cell growth inhibition; type: cell-based; conditions: Homo sapiens, Bel-7402, 72 h, MTT, 72 hours incubation, Bel-7402 cells; read-out: GI50 Bel-7402
Method in brief: as §1

[5] = tested on: DU145 (human prostate cancer cells); test: MTT cancer cell growth inhibition; type: cell-based; conditions: Homo sapiens, DU-145, 72 h, MTT, 72 hours incubation, read-out: GI50 Du1
Method in brief: as §1

[6] = tested on: H1975 (non-small cell lung adenocarcinoma); test: MTT cancer cell growth inhibition; type: cell-based; conditions: Homo sapiens, NCI-H1975, 72 h, MTT, 72 hours incubation, H1975 cells; read-out: GI50 H1975
Method in brief: as §1

[7] = tested on: HCC827 (human non-small cell lung cancer cells); test: MTT cancer cell growth inhibition; type: cell-based; conditions: Homo sapiens, HCC827, 72 h, MTT, 72 hours incubation, HCC827 cells; read-out: GI50 HCC827
Method in brief: as §1

[8] = tested on: HT1080 (human fibrosarcoma cells); test: MTT cancer cell growth inhibition; type: cell-based; conditions: Homo sapiens, HT-1080, 72 h, MTT, 72 hours incubation, read-out: GI50 HT1
Method in brief: as §1

[9] = tested on: Hela (human cervical cancer cells); test: MTT cancer cell growth inhibition; type: cell-based; conditions: Homo sapiens, HeLa, 72 h, MTT, 72 hours incubation, read-out: GI50 Hela
Method in brief: as §1

[10] = tested on: Huh-7 (human hepatoma cells); test: MTT cancer cell growth inhibition; type: cell-based; conditions: Homo sapiens, Huh-7, 72 h, MTT, 72 hours incubation, Huh-7 cells; read-out: GI50 Huh-7
Method in brief: as §1

[11] = tested on: K562 (human leukemia cells); test: MTT cancer cell growth inhibition; type: cell-based; conditions: Homo sapiens, K562, 72 h, MTT, 72 hours incubation, K562 cells; read-out: GI50 K562
Method in brief: as §1

[12] = tested on: KBM-5 (human chronic myelogenous leukemia); test: MTT cancer cell growth inhibition; type: cell-based; conditions: Homo sapiens, KBM5, 72 h, MTT, 72 hours incubation, KBM-5 cells; read-out: GI50 KBM-5
Method in brief: as §1

[13] = tested on: KBM5-T315I (human chronic myelogenous leukemia); test: MTT cancer cell growth inhibition; type: cell-based; conditions: Homo sapiens, 72 h, MTT, 72 hours incubation, KBM5-T315I cells; read-out: GI50 KBM5-T315I
Method in brief: as §1

[14] = tested on: MCF-7 (human breast cancer cells); test: MTT cancer cell growth inhibition; type: cell-based; conditions: Homo sapiens, MCF7, 72 h, 72 hours incubation, read-out: GI50 MCF
Method in brief: as §1

[15] = tested on: MDA-MB-231 (breast cancer cells); test: MTT cancer cell growth inhibition; type: cell-based; conditions: Homo sapiens, MDA-MB-231, 72 h, read-out: GI50 MDA-MB-231, MTT, 72 hours incubation, MDA-MB-231 cells
Method in brief: as §1

[16] = tested on: MOLT-4 (human acute lymphoblastic leukemia cells); test: MTT cancer cell growth inhibition; type: cell-based; conditions: Homo sapiens, MOLT-4, 72 h, MTT, 72 hours incubation, read-out: GI50 Mol
Method in brief: as §1

[17] = tested on: N-87 (human gastric cancer cells); test: MTT cancer cell growth inhibition; type: cell-based; conditions: Homo sapiens, 72 h, MTT, 72 hours incubation, N-87 cells; read-out: GI50 N-87
Method in brief: as §1

[18] = tested on: PANC-1 (Pac-1, human pancreatic cancer cells); test: MTT cancer cell growth inhibition; type: cell-based; conditions: Homo sapiens, PANC-1, 72 h, MTT, 72 hours incubation, read-out: GI50 PAN
Method in brief: as §1

[19] = tested on: SGC-7901 (human gastric cancer cells); test: MTT cancer cell growth inhibition; type: cell-based; conditions: Homo sapiens, SGC-7901, 72 h, MTT, 72 hours incubation, SGC-7901 cells; read-out: GI50 SGC-7901
Method in brief: as §1

[20] = tested on: U937 (human leukemia cells); test: MTT cancer cell growth inhibition; type: cell-based; conditions: Homo sapiens, U-937, 72 h, MTT, 72 hours incubation, read-out: GI50 U93
Method in brief: as §1

[21] = tested on: lncap (prostate cancer cells); test: MTT cancer cell growth inhibition; type: cell-based; conditions: Homo sapiens, LNCaP, 72 h, MTT, 72 hours incubation, read-out: GI50 lnca
Method in brief: as §1

Row | IC50 HDAC7 [1] | GI50 [2] [nM] | GI50 [3] [nM] | GI50 [4] [nM] | GI50 [5] [nM] | GI50 [6] [nM] | GI50 [7] [nM] | GI50 [8] [nM] | GI50 [9] [nM] | GI50 [10] [nM] | GI50 [11] [nM] | GI50 [12] [nM] | GI50 [13] [nM] | GI50 [14] [nM] | GI50 [15] [nM] | GI50 [16] [nM] | GI50 [17] [nM] | GI50 [18] [nM] | GI50 [19] [nM] | GI50 [20] [nM] | Structure (SMILES) | further results
1 | no activity | 20 | 30 | 16 | 30 | 53 | 49 | 80 | 70 | 43 | 35 | 48 | 26 | 30 | 45 | 40 | 29 | 80 | 81 | 30 | CC(C)=C1NC(=O)c2cc(F)cc(n2)CNC(=O)C[C@@H](/C=C/CCS)OC(=O)[C@H](C(C)C)NC1=O [Compound 137] | GI50 [21]: 20 nM
2 | no activity | – | – | 30 | – | 12 | 43 | – | – | 28 | 57 | 41 | 34 | – | 53 | – | 32 | – | 76 | – | C/C=C1\NC(=O)c2nc(ccc2SC)CNC(=O)C[C@@H](/C=C/CCSC(C)=O)OC(=O)[C@H](C(C)C)NC1=O [Compound 165] | GI50 ([2]; A549 cells): 30 nM; GI50 ([3]; BGC-823 cells): 20 nM; GI50 ([5]; DU145 cells): 60 nM; GI50 ([8]; HT1080 cells): 60 nM; GI50 ([9]; Hela cells): 60 nM; GI50 ([14]; MCF-7 cells): 30 nM; GI50 ([16]; MOLT-4 cells): 40 nM; GI50 ([18]; PANC-1 cells): 70 nM; GI50 ([20]; U937 cells): 50 nM; GI50 ([21]; lncap cells): 20 nM
3 | no activity | – | – | 35 | – | 39 | 23 | – | – | 35 | 83 | 31 | 41 | – | 35 | – | 23 | – | 71 | – | C/C=C1\NC(=O)c2ccc(SC)c(n2)CNC(=O)C[C@@H](/C=C/CCSC(=O)CCCCCCC)OC(=O)[C@H](C)NC1=O [Compound 182] | GI50 ([2]; A549 cells): 60 nM; GI50 ([3]; BGC-823 cells): 70 nM; GI50 ([5]; DU145 cells): 50 nM; GI50 ([8]; HT1080 cells): 30 nM; GI50 ([9]; Hela cells): 60 nM; GI50 ([14]; MCF-7 cells): 30 nM; GI50 ([16]; MOLT-4 cells): 30 nM; GI50 ([18]; PANC-1 cells): 90 nM; GI50 ([20]; U937 cells): 80 nM; GI50 ([21]; lncap cells): 100 nM
4 | no activity | 70 | 50 | 32 | 30 | 42 | 54 | 100 | 130 | 41 | 28 | 23 | 11 | 70 | 38 | 30 | 58 | 40 | 42 | 30 | C/C=C1\NC(=O)c2ccc(F)c(n2)CNC(=O)C[C@@H](/C=C/CCS)OC(=O)[C@H](Cc2ccc(O)cc2)NC1=O [Compound 130] | GI50 [21]: 20 nM
5 | no activity | 50 | 30 | 11 | 20 | 35 | 58 | 50 | 30 | 73 | 28 | 67 | 71 | 30 | 26 | 30 | 46 | 50 | 31 | 40 | C/C=C1\NC(=O)c2ccc(F)c(n2)CNC(=O)C[C@@H](/C=C/CCSC(C)=O)OC(=O)[C@@H](C)NC1=O [Compound 102] | GI50 [21]: 30 nM
6 | no activity | 40 | 20 | 42 | 20 | 28 | 42 | 40 | 60 | 35 | 28 | 61 | 26 | 20 | 35 | 30 | 22 | 40 | 41 | 20 | C/C=C1\NC(=O)c2nc(ccc2F)CNC(=O)C[C@@H](/C=C/CCSC(C)=O)OC(=O)[C@H](CCCCNC(=O)OCC2c3ccccc3-c3ccccc32)NC1=O [Example 75] | GI50 [21]: 30 nM
7 | no activity | 40 | 30 | 55 | 100 | 35 | 35 | 40 | 50 | 19 | 57 | 46 | 53 | 100 | 35 | 80 | 84 | 40 | 32 | 70 | C/C=C1\NC(=O)c2nc(ccc2F)CNC(=O)C[C@@H](/C=C/CCSC(=O)CCC)OC(=O)[C@H](C(C)C)NC1=O [Example 42] | GI50 [21]: 50 nM
